Experimental data taken from patent US20230295200A1 (REGENTS OF THE UNIVERSITY OF MICHIGAN, priority 2022, published 2023).

Tests used:
STAT5A = target: T1, STAT5A (Homo sapiens, UniProt P42229); experiment: Fluorescence polarization (FP) binding assay, STAT5A; settings: FP competition, 5 nM fluorescein-labeled tracer, 200 nM protein, PBS pH7.4
T1 sequence (P42229 1-794): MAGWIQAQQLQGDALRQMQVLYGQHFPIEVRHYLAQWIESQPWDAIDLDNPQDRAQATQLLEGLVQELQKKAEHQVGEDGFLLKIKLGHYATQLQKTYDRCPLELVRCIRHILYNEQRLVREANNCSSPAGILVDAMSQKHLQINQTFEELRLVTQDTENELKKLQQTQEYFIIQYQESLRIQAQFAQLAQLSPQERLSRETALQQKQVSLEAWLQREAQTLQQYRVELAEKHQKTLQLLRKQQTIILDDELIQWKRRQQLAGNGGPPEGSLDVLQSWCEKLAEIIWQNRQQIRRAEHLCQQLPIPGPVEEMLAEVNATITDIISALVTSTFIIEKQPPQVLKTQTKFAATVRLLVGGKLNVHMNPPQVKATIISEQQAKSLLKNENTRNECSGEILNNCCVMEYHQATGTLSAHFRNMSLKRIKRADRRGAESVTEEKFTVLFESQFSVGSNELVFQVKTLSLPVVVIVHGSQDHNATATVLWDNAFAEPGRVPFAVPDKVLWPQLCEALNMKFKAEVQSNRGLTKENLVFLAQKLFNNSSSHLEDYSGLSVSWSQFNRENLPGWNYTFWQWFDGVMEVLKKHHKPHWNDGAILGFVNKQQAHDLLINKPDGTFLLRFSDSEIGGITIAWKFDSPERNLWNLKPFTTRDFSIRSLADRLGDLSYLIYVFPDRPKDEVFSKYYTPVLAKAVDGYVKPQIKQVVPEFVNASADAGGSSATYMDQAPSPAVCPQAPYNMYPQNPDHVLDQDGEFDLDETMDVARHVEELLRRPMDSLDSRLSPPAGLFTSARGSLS
How it was run: (§1)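 Fluorescein-labelled tracer (5 nM) with 200 nM STAT5 and/or STAT6 protein in PBS pH 7.4, 0.01% BGG, 0.01% Tween-20, 2 mM DTT. Mixed 15 min, then equilibrated 1 h at room temperature; read by fluorescence polarization, constants from nonlinear curve fitting.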

STAT6 protein = target: T2, STAT6 protein (Homo sapiens, UniProt P42226); experiment: Fluorescence polarization (FP) binding assay, STAT6; settings: FP competition, 5 nM fluorescein-labeled tracer, 200 nM protein, PBS pH7.4; read-out: Binding STAT6
T2 sequence (P42226 1-847): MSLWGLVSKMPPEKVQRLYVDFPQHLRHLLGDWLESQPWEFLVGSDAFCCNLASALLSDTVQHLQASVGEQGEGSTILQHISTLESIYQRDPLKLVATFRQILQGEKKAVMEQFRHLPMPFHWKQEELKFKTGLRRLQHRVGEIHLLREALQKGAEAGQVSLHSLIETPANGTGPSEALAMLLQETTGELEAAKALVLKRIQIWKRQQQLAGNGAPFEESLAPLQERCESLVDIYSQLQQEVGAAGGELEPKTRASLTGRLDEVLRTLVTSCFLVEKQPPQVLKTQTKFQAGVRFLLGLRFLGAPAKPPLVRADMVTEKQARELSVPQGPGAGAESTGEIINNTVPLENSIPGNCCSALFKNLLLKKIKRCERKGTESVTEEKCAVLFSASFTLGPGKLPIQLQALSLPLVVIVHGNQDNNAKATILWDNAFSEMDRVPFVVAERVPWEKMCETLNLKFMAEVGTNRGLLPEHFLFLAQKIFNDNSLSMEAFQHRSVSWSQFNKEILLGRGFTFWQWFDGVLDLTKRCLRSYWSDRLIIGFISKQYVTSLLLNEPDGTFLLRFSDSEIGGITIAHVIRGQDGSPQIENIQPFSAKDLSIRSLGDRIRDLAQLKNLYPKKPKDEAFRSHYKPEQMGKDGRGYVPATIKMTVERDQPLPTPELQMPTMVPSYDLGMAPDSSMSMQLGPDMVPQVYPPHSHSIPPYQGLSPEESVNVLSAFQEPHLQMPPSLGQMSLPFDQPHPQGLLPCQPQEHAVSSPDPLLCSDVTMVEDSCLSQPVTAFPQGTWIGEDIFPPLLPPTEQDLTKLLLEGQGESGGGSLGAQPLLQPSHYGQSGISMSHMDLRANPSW
How it was run: as §1

Compound | Ki (STAT5A) [µM] | Ki (STAT6 protein) [nM]
CCC(CC)[C@H](NC(=O)c1cc2cc(C(F)(F)P(=O)(O)O)ccc2s1)C(=O)N1CCC[C@H]1C(=O)N1CCO[C@@H](c2ccccc2)C1 [Compound 150, ((2-(((S)-3-ethyl-1-oxo-1-((S)-2-((S)-2-phenylmorpholine-4-carbonyl)pyrrolidin-1-yl)pentan-2-yl)carbamoyl)benzo[b]thiophen-5-yl)difluoromethyl)phosphonic acid] | > 10 | 1000 to 10000
CC(C)(C)[C@H](NC(=O)c1ccc2cc(C(F)(F)P(=O)(O)O)ccc2c1)C(=O)N1CCC[C@H]1C(=O)N1CCO[C@@H](c2ccccc2)C1 [Compound 151, ((6-(((S)-3,3-dimethyl-1-oxo-1-((S)-2-((S)-2-phenylmorpholine-4-carbonyl)pyrrolidin-1-yl)butan-2-yl)carbamoyl)naphthalen-2-yl)difluoromethyl)phosphonic acid] | > 10 | 1000 to 10000
CCC[C@H](NC(=O)c1cc2cc(C(F)(F)P(=O)(O)O)ccc2s1)C(=O)N1CCC[C@H]1C(=O)N1CCO[C@@H](c2ccccc2)C1 [Compound 152, (difluoro(2-(((S)-1-oxo-1-((S)-2-((S)-2-phenylmorpholine-4-carbonyl)pyrrolidin-1-yl)pentan-2-yl)carbamoyl)benzo[b]thiophen-5-yl)methyl)phosphonic acid] | > 10 | 1000 to 10000
C#CC[C@H](NC(=O)c1cc2cc(C(F)(F)P(=O)(O)O)ccc2s1)C(=O)N1CCC[C@H]1C(=O)N1CCO[C@@H](c2ccccc2)C1 [Compound 153, (difluoro(2-(((S)-1-oxo-1-((S)-2-((S)-2-phenylmorpholine-4-carbonyl)pyrrolidin-1-yl)pent-4-yn-2-yl)carbamoyl)benzo[b]thiophen-5-yl)methyl)phosphonic acid] | > 10 | 1000 to 10000
O=C(N[C@H](C(=O)N1CCC[C@H]1C(=O)N1CCO[C@@H](c2ccccc2)C1)C1CC1)c1cc2cc(C(F)(F)P(=O)(O)O)ccc2s1 [Compound 154, ((2-(((S)-1-cyclopropyl-2-oxo-2-((S)-2-((S)-2-phenylmorpholine-4-carbonyl)pyrrolidin-1-yl)ethyl)carbamoyl)benzo[b]thiophen-5-yl)difluoromethyl)phosphonic acid] | > 10 | 1000 to 10000
O=C(NC1(C(=O)N2CCC[C@H]2C(=O)N2CCO[C@@H](c3ccccc3)C2)CCC1)c1cc2cc(C(F)(F)P(=O)(O)O)ccc2s1 [Compound 155, (difluoro(2-((1-((S)-2-((S)-2-phenylmorpholine-4-carbonyl)pyrrolidine-1-carbonyl)cyclobutyl)carbamoyl)benzo [b]thiophen-5-yl)methyl)phosphonic acid] | > 10 | > 10000
CC(C)(O)[C@H](NC(=O)c1cc2cc(C(F)(F)P(=O)(O)O)ccc2s1)C(=O)N1CCC[C@H]1C(=O)N1CCO[C@@H](c2ccccc2)C1 [Compound 156, (difluoro(2-(((S)-3-hydroxy-3-methyl-1-oxo-1-((S)-2-((S)-2-phenylmorpholine-4-carbonyl)pyrrolidin-1-yl)butan-2-yl)carbamoyl)benzo[b]thiophen-5-yl)methyl)phosphonic acid] | > 10 | 1000 to 10000

The next lines start with the values.

Ki (STAT5A) [µM] | Ki (STAT6 protein) [nM] | Compound
> 10 | 1000 to 10000 | CC(=O)N1CC[C@H]2CC[C@@H](C(=O)N3CCC[C@@H](c4ccccc4)C3)N2C(=O)[C@@H](NC(=O)c2cc3cc(C(F)(F)P(=O)(O)O)ccc3s2)C1 [Compound 157, ((2-(((5S,8S,10aR)-3-acetyl-6-oxo-8-((S)-3-phenylpiperidine-1-carbonyl)decahydropyrrolo[1,2-a][1,5]diazocin-5-yl)carbamoyl)benzo[b]thiophen-5-yl)difluoromethyl)phosphonic acid]
> 10 | 100 to 1000 | CC(=O)N1CC[C@H]2CC[C@@H](C(=O)N3CCC[C@H](c4ccccc4)C3)N2C(=O)[C@@H](NC(=O)c2cc3cc(C(F)(F)P(=O)(O)O)ccc3s2)C1 [Compound 158, ((2-(((5S,8S,10aR)-3-acetyl-6-oxo-8-((R)-3-phenylpiperidine-1-carbonyl)decahydropyrrolo[1,2-a][1,5]diazocin-5-yl)carbamoyl)benzo[b]thiophen-5-yl)difluoromethyl)phosphonic acid]
> 10 | 1000 to 10000 | CC(=O)N1CC[C@H]2CC[C@@H](C(=O)N3CCOC(C)(c4ccc(F)cc4)C3)N2C(=O)[C@@H](NC(=O)c2cc3cc(C(F)(F)P(=O)(O)O)ccc3s2)C1 (stereo partly drawn) [Compound 159, ((2-(((5S,8S,10aR)-3-acetyl-8-(2-(4-fluorophenyl)-2-methylmorpholine-4-carbonyl)-6-oxodecahydropyrrolo[1,2-a][1,5]diazocin-5-yl)carbamoyl)benzo[b]thiophen-5-yl)difluoromethyl)phosphonic acid]
> 10 | 1000 to 10000 | CC(=O)N1CC[C@H]2CC[C@@H](C(=O)N3CCOC(C)(c4ccc(Cl)cc4)C3)N2C(=O)[C@@H](NC(=O)c2cc3cc(C(F)(F)P(=O)(O)O)ccc3s2)C1 (stereo partly drawn) [Compound 160, ((2-(((5S,8S,10aR)-3-acetyl-8-(2-(4-chlorophenyl)-2-methylmorpholine-4-carbonyl)-6-oxodecahydropyrrolo[1,2-a][1,5]diazocin-5-yl)carbamoyl)benzo[b]thiophen-5-yl)difluoromethyl)phosphonic acid]
> 10 | 100 to 1000 | CC(=O)N1CC[C@H]2CC[C@@H](C(=O)N3CCOC(c4ccc(F)cc4)C3)N2C(=O)[C@@H](NC(=O)c2cc3cc(C(F)(F)P(=O)(O)O)ccc3s2)C1 (stereo partly drawn) [Compound 161, ((2-(((5S,8S,10aR)-3-acetyl-8-(2-(4-fluorophenyl)morpholine-4-carbonyl)-6-oxodecahydropyrrolo[1,2-a][1,5]diazocin-5-yl)carbamoyl)benzo[b]thiophen-5-yl)difluoromethyl)phosphonic acid]
> 10 | 100 to 1000 | CC(=O)N1CC[C@H]2CC[C@@H](C(=O)N3CCOC(c4cccc(Cl)c4)C3)N2C(=O)[C@@H](NC(=O)c2cc3cc(C(F)(F)P(=O)(O)O)ccc3s2)C1 (stereo partly drawn) [Compound 162, ((2-(((5S,8S,10aR)-3-acetyl-8-(2-(3-chlorophenyl)morpholine-4-carbonyl)-6-oxodecahydropyrrolo[1,2-a][1,5]diazocin-5-yl)carbamoyl)benzo[b]thiophen-5-yl)difluoromethyl)phosphonic acid]
> 10 | 1000 to 10000 | CC(=O)N1CC[C@H]2CC[C@@H](C(=O)N3CCOC(c4cc(F)c(Cl)cc4Cl)C3)N2C(=O)[C@@H](NC(=O)c2cc3cc(C(F)(F)P(=O)(O)O)ccc3s2)C1 (stereo partly drawn) [Compound 163, ((2-(((5S,8S,10aR)-3-acetyl-8-(2-(2,4-dichloro-5-fluorophenyl)morpholine-4-carbonyl)-6-oxodecahydropyrrolo[1,2-a][1,5]diazocin-5-yl)carbamoyl)benzo[b]thiophen-5-yl)difluoromethyl)phosphonic acid]
> 10 | 1000 to 10000 | CC(=O)N1CC[C@H]2CC[C@@H](C(=O)N3CCOC(c4ccccc4C)C3)N2C(=O)[C@@H](NC(=O)c2cc3cc(C(F)(F)P(=O)(O)O)ccc3s2)C1 (stereo partly drawn) [Compound 164, ((2-(((5S,8S,10aR)-3-acetyl-6-oxo-8-(2-(o-tolyl)morpholine-4-carbonyl)decahydropyrrolo[1,2-a][1,5]diazocin-5-yl)carbamoyl)benzo[b]thiophen-5-yl)difluoromethyl)phosphonic acid]
